From patent US11213481B2, “Tumescent drug delivery” (priority 2004, dated 2022)
Values after ≈ are worked out from the molar mass of the structure shown. Values joined by “and” are separate entries in the source; they are usually repeats but may differ in a detail not shown here. Identical values can stand only once. Like-named read-outs stand apart in the source and are kept apart here.

Key:
[1] = system: Staphyloccus aureus (MRSA) ATCC 33592; experiment: Minimum Bactericidal Concentration (MBC); type: cell-based, Staphylococcus aureus
Text: Determinations of MBC followed the method described in “Report on the Working Party on Antibiotic Sensitivity Testing of the British Society of Antimicrobial Chemotherapy: A Guide to Sensitivity Testing.”

[2] = system: platelet function; experiment: Bleeding time and bleeding area before and after tumescent lidocaine exposure (preliminary experiment); type: in vivo, human
Method: The skin of the left and right thigh of a subject is cleaned and allowed to dry. […] Simultaneous 4 mm deep puncture wounds are made to the same area of the left and right thighs with disposable lancets. The puncture sites are blotted with filter paper every 30 seconds, until bleeding stops and the bleeding time for each thigh is recorded. The bleeding times of the left and right thigh are compared to determine if administration of TLAnti increases bleeding time. Normal bleeding time measured by the Duke method is 1 to 3 minutes.
In a preliminary experiment, bleeding time and bleeding area were measured in a patient before and after tumescent lidocaine exposure. […] In contrast, there was a 40% increase in Average Bleeding Area (BA). Bleeding Area (BA) was a more sensitive and a more specific test for platelet function compared to Bleeding Time (BT). […] In otherwords, TAD may reduce the risk of both post-operative surgical site infection and post-operative thromboembolism.

[3] = system: platelet aggregation induced by ADP, epinephrine and collagen; conditions: cited from earlier work
[4] = routine local anesthesia with lidocaine; cited from earlier work
[5] = system: S. aureus; conditions: effect increases with greater duration of exposure; cited from earlier work
[6] = cited from earlier work
[7] = system: Staphyloccus aureus (MRSA) ATCC 33592; experiment: Minimum Inhibitory Concentration (MIC); conditions: Staphylococcus aureus
Method: Following inoculation, survival of test microorganisms was determined.

[8] = clinical; conditions: human, in vivo
Method: A clinical pharmacologic investigation was conducted to compare the pharmacokinetic advantages of two modes of systemic antibiotic delivery, Tumescent antibiotic delivery (TAD), which involves the delivery of a relatively large volume of an antibiotic-containing solution to the subcutaneous compartment, and intravenous antibiotic delivery (IVAD), which results in direct delivery of antibiotics to the blood stream, for prophylaxis of SSI.
With Institutional Review Board (IRB) approval, the absorption pharmacokinetics of tumescent antibiotic delivery (TAD) and intravenous antibiotic delivery (IVAD) were tested in human subjects and the antibiotic delivery modes were evaluated with respect to the area under the curve (AUC) of antibiotic concentration as a function of time and peak antibiotic concentration (Cmax) in serum and TISF. 4 female subjects participated in at least one study, one subject volunteered for 2 separate studies. 5 studies were conducted: 3 involved TAD to the abdomen, 1 involved TAD to the hips and outer thighs and 1 involved TAD to the breasts. […] Each of the 5 studies consisted of 2 to 3 pharmacokinetic procedures, for a total of 14 procedures. Any procedures conducted on an individual subject were separated by at least one week. In 13 procedures only IVAD or TAD, was used. In one procedure both IVAD and TAD were used concurrently, with IVAD started and finished within five minutes after completing TAD.
TAD was conducted as described herein. Following TAD, sequential 10 ml samples of tumescent adipose tissue were obtained using a hand-held syringe-liposuction technique. Sampling began immediately after completing the TAD infiltration (T0), and continuing until the patients reported significant discomfort. Liposuction aspirate samples were obtained at 0, 1, 2, 3, 4, 6, and 8 hours in all procedures; in 4 TAD procedures, sampling continued until 10 hours. Sequential serum samples for measurement of antibiotic concentration in serum after TAD ([Serum]TAD) were obtained simultaneously.
For IVAD, the antibiotic was delivered into an antecubital vein. Following IVAD, serum samples were taken from the contralateral arm via an indwelling venous catheter beginning immediately after completion of the antibiotic delivery (T0).
The samples of liposuction aspirate were centrifuged to obtain infranatant TISF, which comprises minimally blood-tinged tissue-free residual tumescent solution.
AUC (Area Under the Curve) of drug concentration as a function of time, a metric for measuring the cumulative exposure to an individual drug within a specified tissue, was estimated for time T0 to time Tn using the trapezoid rule: […]

[9] = cited from earlier work; remark: listed apart in the source
[10] = cited from earlier work; remark: listed apart in the source
[11] = 1 gm at the end of the surgery; 405 abdominal surgery patients; cited from earlier work
[12] = after vs before tumescent lidocaine exposure
[13] = post-op tumescent lidocaine exposure, Pt# 1, tests T3, T4

## Cc1nnc(SCC2=C(C(=O)O)N3C(=O)[C@@H](NC(=O)Cn4cnnn4)[C@H]3SC2)s1 [Cefazolin]
[1]; Day 1, Cefazolin 62.5 mg/L, MRSA inoculum 4.7 × 10^5 CFU/ml
  MRSA growth (MBC test): +
[1]; Day 1, Cefazolin 125 mg/L, MRSA inoculum 4.7 × 10^5 CFU/ml
  MRSA growth (MBC test): +
[1]; Day 1, Cefazolin 250 mg/L, MRSA inoculum 4.7 × 10^5 CFU/ml
  MRSA growth (MBC test): 0
[1]; Day 2, Cefazolin 62.5 mg/L, MRSA inoculum 4.4 × 10^5 CFU/ml
  MRSA growth (MBC test): +
[1]; Day 2, Cefazolin 125 mg/L, MRSA inoculum 4.4 × 10^5 CFU/ml
  MRSA growth (MBC test): +
[1]; Day 2, Cefazolin 250 mg/L, MRSA inoculum 4.4 × 10^5 CFU/ml
  MRSA growth (MBC test): 0

## CCN(CC)CC(=O)Nc1c(C)cccc1C [Lidocaine]
[1]; Day 1, Lidocaine 1,000 mg/L, MRSA inoculum 4.7 × 10^5 CFU/ml
  MRSA growth (MBC test): +
[1]; Day 2, Lidocaine 1,000 mg/L, MRSA inoculum 4.4 × 10^5 CFU/ml
  MRSA growth (MBC test): +
[1]; Day 2, Lidocaine 5,000 mg/L, MRSA inoculum 4.4 × 10^5 CFU/ml
  MRSA growth (MBC test): +
[1]; Day 2, Lidocaine 10,000 mg/L, MRSA inoculum 4.4 × 10^5 CFU/ml
  MRSA growth (MBC test): 0
[2]; [12]
  change in Average Bleeding Time (BT): essentially no change
  increase in Average Bleeding Area (BA): 40%
[2]; post-op tumescent lidocaine exposure, Control BA = 541
  Lidocaine BA (Average Bleeding Area): BA = 759
[2]; post-op tumescent lidocaine exposure, Control BT = 6
  Lidocaine BT (Average Bleeding Time): BT = 5.75
[2]; [13]
  Bleeding Area BA: 791.81 and 726.03
  Bleeding Time BT × 2: 10 and 13
[3]; aggregation induced by ADP, epinephrine and collagen
  lidocaine concentration that consistently inhibits in-vitro platelet aggregation: ≥ 0.5 mg/mL
[3]; at safe systemic concentrations (e.g. ≤6 micrograms/ml)
  effect on platelet aggregation: no effect
[3]
  platelet aggregation induced by ADP: inhibit
[4]
  duration of local anesthesia: ~2 h
[5]
  bactericidal activity in vitro: bactericidal
[6]; commercial lidocaine (1%=10 gm/L) with epinephrine (1:100,000=10 mg/L)
  dosage limitation approved by the FDA for infiltration local anesthesia: 7 mg/kg
[6]; tumescent lidocaine, TLA without liposuction, adults
  maximum safe mg/kg dosage (estimated): ~30 mg/kg
[7]
  MIC: ~5000 µg/mL (≈ 21.3 mM)

## Cc1ncc([N+](=O)[O-])n1CCO [Metronidazole]
[8]; female
  interval in which serum concentration of metronidazole exceeded 4 μg/ml: 0 to 12 h
  interval in which serum concentration of metronidazole exceeds 4 μg/ml: 0 to 12 h
[8]; female, 500 mg, AUC[Serum]IVAD, metronidazole, Study 4, IVAD dose 500 mg
  AUC: 122 µg·h/mL
[8]; female, 500 mg, AUC[Serum]TAD
  AUC: 67 µg·h/mL
[8]; female, 500 mg, AUC[TISF]TAD
  AUC: 2600 µg·h/mL
[8]; female, 600 mg, AUC[Serum]IVAD, metronidazole, Study 5, IVAD dose 600 mg
  AUC: 127 µg·h/mL
[8]; female, 600 mg, AUC[Serum]TAD
  AUC: 81 µg·h/mL
[8]; female, 600 mg, AUC[TISF]TAD, metronidazole, Study 5 (Abdomen) TAD1: 600 mg, 172 mg/L in TAD
  AUC: 1030 µg·h/mL
[8]; 500 mg
  ER3 = ER1/ER2 = AUC[TISF]TAD/AUC[Serum]TAD: 38.8
[8]; 600 mg
  ER3 = ER1/ER2 = AUC[TISF]TAD/AUC[Serum]TAD: 12.7

## CCOC(=O)c1ccc(N)cc1 [benzocaine]
[3]
  platelet aggregation induced by ADP: inhibit

## CCCCN1CCCCC1C(=O)Nc1c(C)cccc1C (stereo not drawn) [bupivacaine]
[3]
  platelet aggregation induced by ADP: inhibit

## CO[C@@]1(NC(=O)Cc2cccs2)C(=O)N2C(C(=O)O)=C(COC(N)=O)CS[C@@H]21 [cefoxitin]
[9]; normal controls
  subjects with penetration P=AUC[ISF]IVAD/AUC[SERUM]IVAD less than 0.1: 3/10
[9]; normal weight volunteers, microdialysis
  Penetration PR: 0.37±0.26
[9]; obese patients
  degree of antibiotic penetration into ISF relative to normal weight subjects: 22%
[9]; obese subjects
  subjects with penetration P=AUC[ISF]IVAD/AUC[SERUM]IVAD less than 0.1: 8/10
[10]
  protein binding: approximately 72%

## O=C(Cc1cccs1)N[C@@H]1C(=O)N2C(C(=O)[O-])=C(C[n+]3ccccc3)CS[C@H]12 [cephaloridine]
[11]
  incidence of wound infection, intravenous vs intra incisional: no significant difference
